{
  "source": "ChEMBL document CHEMBL1221220",
  "about": "“Transport and signaling via the amino acid binding site of the yeast Gap1 amino acid transceptor” (Nat Chem Biol, 2009)",
  "key": {"[1]": {"test_system": "T1, General amino-acid permease GAP1 (Saccharomyces cerevisiae), P19145 [A396C]", "T1 sequence (whole entry)": "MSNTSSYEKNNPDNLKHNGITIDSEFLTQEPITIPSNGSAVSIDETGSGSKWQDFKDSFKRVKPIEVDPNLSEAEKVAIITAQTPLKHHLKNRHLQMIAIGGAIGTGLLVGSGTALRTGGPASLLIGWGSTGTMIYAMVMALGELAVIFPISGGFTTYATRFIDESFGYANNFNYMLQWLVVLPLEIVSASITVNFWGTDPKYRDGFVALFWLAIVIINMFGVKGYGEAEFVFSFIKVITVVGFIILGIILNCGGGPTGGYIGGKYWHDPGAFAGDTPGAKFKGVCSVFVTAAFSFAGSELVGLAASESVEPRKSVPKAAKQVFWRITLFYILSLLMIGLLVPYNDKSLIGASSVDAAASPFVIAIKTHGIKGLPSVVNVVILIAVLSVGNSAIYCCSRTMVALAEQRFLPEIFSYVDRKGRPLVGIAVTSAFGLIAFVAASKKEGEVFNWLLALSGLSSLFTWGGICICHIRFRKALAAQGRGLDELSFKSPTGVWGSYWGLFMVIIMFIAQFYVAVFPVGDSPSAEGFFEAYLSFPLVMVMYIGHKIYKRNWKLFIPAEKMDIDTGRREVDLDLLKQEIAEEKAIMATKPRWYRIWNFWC", "assay": "Induction of yeast Gap1 A396C mutant-mediated trehalose activation at 10 mM"}, "[2]": {"test_system": "General amino-acid permease GAP1 (Saccharomyces cerevisiae), P19145 [V389C]", "sequence (P19145 whole entry V389C)": "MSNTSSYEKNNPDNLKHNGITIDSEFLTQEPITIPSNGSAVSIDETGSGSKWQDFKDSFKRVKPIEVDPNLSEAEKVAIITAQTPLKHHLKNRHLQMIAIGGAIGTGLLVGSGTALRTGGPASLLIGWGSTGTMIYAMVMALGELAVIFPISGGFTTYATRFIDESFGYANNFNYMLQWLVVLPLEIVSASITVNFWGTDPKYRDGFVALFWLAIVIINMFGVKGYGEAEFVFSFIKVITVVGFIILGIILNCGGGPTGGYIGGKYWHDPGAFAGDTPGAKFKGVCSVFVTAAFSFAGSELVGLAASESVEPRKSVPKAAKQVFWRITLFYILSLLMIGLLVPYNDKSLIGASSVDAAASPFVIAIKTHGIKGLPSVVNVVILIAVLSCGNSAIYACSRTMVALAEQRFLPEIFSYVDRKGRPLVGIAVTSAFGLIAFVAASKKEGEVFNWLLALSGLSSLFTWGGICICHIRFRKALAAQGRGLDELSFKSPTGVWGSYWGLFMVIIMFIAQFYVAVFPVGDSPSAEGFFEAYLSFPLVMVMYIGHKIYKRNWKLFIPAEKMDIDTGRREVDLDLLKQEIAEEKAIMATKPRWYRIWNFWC", "assay": "Induction of yeast Gap1 V389C mutant-mediated amino acid uptake at 2 mM in presence of 10 mM MTSEA treated before compound addition"}, "[3]": {"test_system": "T2, General amino-acid permease GAP1 (Saccharomyces cerevisiae), P19145 [V381C]", "T2 sequence (whole entry)": "T1 sequence (whole entry) with V381C, C396A", "assay": "Activation of yeast Gap1 V381C mutant-mediated amino acid uptake at 10 mM"}, "[4]": {"test_system": "General amino-acid permease GAP1 (Saccharomyces cerevisiae), P19145 [S388C]", "sequence (P19145 whole entry S388C)": "as the sequence (P19145 whole entry V389C) above, with S388C, C389V counted along it", "assay": "Induction of yeast Gap1 S388C mutant-mediated amino acid uptake at 2 mM in presence of 10 mM MTSEA treated before compound addition"}, "[5]": {"test_system": "T3, General amino-acid permease GAP1 (Saccharomyces cerevisiae), P19145 [M401C]", "T3 sequence (whole entry)": "T1 sequence (whole entry) with C396A, M401C", "assay": "Induction of yeast Gap1 M401C mutant-mediated trehalose activation at 2 mM in presence of 10 mM MTSEA treated before compound addition"}, "[6]": {"test_system": "T4, General amino-acid permease GAP1 (Saccharomyces cerevisiae), P19145 [I384C]", "T4 sequence (whole entry)": "T1 sequence (whole entry) with I384C, C396A", "assay": "Activation of yeast Gap1 I384C mutant-mediated amino acid uptake at 10 mM"}},
  "note": "Numbering of substitutions follows the chain as printed. Activity calls are given as the source filed them. The calls are words filed in the database; no cut-off is given here.",
  "data": [
    {"smiles": "NC(=O)NCCC[C@H](N)C(=O)O", "values": [
      {"measurement": "Activity", "setting": "[1]", "result": "inactive"},
      {"measurement": "inhibition", "setting": "[2]", "result": "inactive"},
      {"measurement": "Activity", "setting": "[3]", "result": "inactive"},
      {"measurement": "inhibition", "setting": "[4]", "result": "inactive"},
      {"measurement": "inhibition", "setting": "[5]", "result": "Active"},
      {"measurement": "Activity", "setting": "[6]", "result": "inactive"}
    ]}
  ]
}
